According to PubChem BioAssay AID248 (DTP/NCI, 2004):
Several values for one entry are separate records, joined by “and”; a condition that tells them apart may be missing. Identical values can stand only once. Toxic doses and inconclusive results are not listed. Rule as the data show it: active = T/C of 150% or more; inactive = T/C below 125%.

Test system: L1210 leukemia ip in BDF1 mice, survival T/C
Experiment: NCI In Vivo Anticancer Drug Screen. Data for tumor model L1210 Leukemia (intraperitoneal) in B6D2F1 (BDF1) mice
Details: endpoint: mean survival time, higher = longer survival
Outline: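 Tumor cells were implanted, animals were treated, and survival was followed. The result divides the treated measurement by the vehicle-control measurement.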

[1] = dose: 12.5 mg/kg/injection, schedule: Q01DX009 (ip), vehicle: Klucel (hydroxypropylcellulose) (HPC)
[2] = dose: 12.5 mg/kg/injection, schedule: Q04DX003 (ip), vehicle: Klucel (hydroxypropylcellulose) (HPC)
[3] = dose: 25.0 mg/kg/injection, schedule: Q01DX009 (ip), vehicle: Klucel (hydroxypropylcellulose) (HPC)
[4] = dose: 25.0 mg/kg/injection, schedule: Q04DX003 (ip), vehicle: Klucel (hydroxypropylcellulose) (HPC)
[5] = dose: 50.0 mg/kg/injection, schedule: Q01DX009 (ip), vehicle: Klucel (hydroxypropylcellulose) (HPC)
[6] = dose: 50.0 mg/kg/injection, schedule: Q04DX003 (ip), vehicle: Klucel (hydroxypropylcellulose) (HPC)
[7] = dose: 100.0 mg/kg/injection, schedule: Q04DX003 (ip), vehicle: saline with Tween-80
[8] = dose: 100.0 mg/kg/injection, schedule: Q01DX001 (ip), vehicle: saline
[9] = dose: 200.0 mg/kg/injection, schedule: Q01DX001 (ip), vehicle: saline
[10] = dose: 400.0 mg/kg/injection, schedule: Q01DX001 (ip), vehicle: saline
[11] = dose: 100.0 mg/kg/injection, schedule: Q04DX002 (ip), vehicle: Klucel (hydroxypropylcellulose) (HPC)
[12] = dose: 200.0 mg/kg/injection, schedule: Q04DX002 (ip), vehicle: Klucel (hydroxypropylcellulose) (HPC)
[13] = dose: 100.0 mg/kg/injection, schedule: Q01DX001 (ip), vehicle: carboxymethylcellulose (CMC)
[14] = dose: 200.0 mg/kg/injection, schedule: Q01DX001 (ip), vehicle: carboxymethylcellulose (CMC)
[15] = dose: 400.0 mg/kg/injection, schedule: Q01DX001 (ip), vehicle: carboxymethylcellulose (CMC)
[16] = dose: 100.0 mg/kg/injection, schedule: Q04DX002 (ip), vehicle: saline with Tween-80
[17] = dose: 200.0 mg/kg/injection, schedule: Q04DX002 (ip), vehicle: saline with Tween-80
[18] = dose: 400.0 mg/kg/injection, schedule: Q04DX002 (ip), vehicle: saline with Tween-80
[19] = dose: 200.0 mg/kg/injection, schedule: Q01DX009 (ip), vehicle: Klucel (hydroxypropylcellulose) (HPC)
[20] = dose: 100.0 mg/kg/injection, schedule: Q01DX009 (ip), vehicle: Klucel (hydroxypropylcellulose) (HPC)
[21] = dose: 100.0 mg/kg/injection, schedule: Q04DX003 (ip), vehicle: Klucel (hydroxypropylcellulose) (HPC)
[22] = dose: 200.0 mg/kg/injection, schedule: Q04DX003 (ip), vehicle: Klucel (hydroxypropylcellulose) (HPC)
[23] = dose: 400.0 mg/kg/injection, schedule: Q04DX003 (ip), vehicle: Klucel (hydroxypropylcellulose) (HPC)
[24] = dose: 100.0 mg/kg/injection, schedule: Q01DX009 (ip), vehicle: saline
[25] = dose: 200.0 mg/kg/injection, schedule: Q01DX009 (ip), vehicle: saline

Measured: T/C

C[N+](C)(Cc1ccccc1)C1c2ccccc2-c2ccc(Br)cc21 (centres undefined)
inactive: [1] 97 % of control | [2] 94 % of control | [3] 92 % of control | [4] 94 % of control | [5] 96 % of control | [6] 88 % of control

CCCCCCCCCCOP(N)(=O)OCCCCCCCCCC
inactive: dose: 25.0 mg/kg/injection, schedule: Q01DX009 (ip), vehicle: carboxymethylcellulose (CMC) 98 % of control | dose: 50.0 mg/kg/injection, schedule: Q01DX009 (ip), vehicle: carboxymethylcellulose (CMC) 104 % of control | dose: 50.0 mg/kg/injection, schedule: Q04DX003 (ip), vehicle: carboxymethylcellulose (CMC) 89 % of control | dose: 100.0 mg/kg/injection, schedule: Q01DX009 (ip), vehicle: carboxymethylcellulose (CMC) 93 % of control | dose: 100.0 mg/kg/injection, schedule: Q04DX003 (ip), vehicle: carboxymethylcellulose (CMC) 94 % of control | dose: 225.0 mg/kg/injection, schedule: Q01DX009 (ip), vehicle: carboxymethylcellulose (CMC) 104 % of control

O=C(O)c1ccc2ccc3cccnc3c2n1
inactive: [7] 96 % of control | dose: 200.0 mg/kg/injection, schedule: Q04DX003 (ip), vehicle: saline with Tween-80 113 % of control

O=C(NCCO)Nc1cccc2ccccc12
inactive: [8] 95 % of control | [9] 95 % of control | [10] 90 % of control

O=[N+]([O-])c1ccc(/C=N/c2oc(-c3ccc([N+](=O)[O-])cc3)nc2SCc2ccccc2)cc1
inactive: dose: 50.0 mg/kg/injection, schedule: Q04DX002 (ip), vehicle: Klucel (hydroxypropylcellulose) (HPC) 100 % of control | [11] 100 % of control | [12] 116 % of control

Cc1ncc(CO)c(Nc2ccccc2Cl)n1
inactive: [2] 88 % of control | [4] 102 % of control | [6] 98 % of control

O=[N+]([O-])c1ccc(Oc2cccc(Cl)c2)c(Cl)c1
inactive: [8] 112 % of control | [9] 109 % of control | [10] 105 % of control

O=C1C=C(c2c(O)ccc3ccccc23)c2ccccc2C1=O
inactive: dose: 50.0 mg/kg/injection, schedule: Q01DX001 (ip), vehicle: carboxymethylcellulose (CMC) 96 % of control | [13] 100 % of control | [14] 96 % of control | [15] 110 % of control

Cc1ccnc(NS(=O)(=O)c2ccc(N)cc2)n1
inactive: [16] 93 % of control | [17] 101 % of control | [18] 93 % of control

NS(=O)(=O)c1cc(Br)c2c(c1)S(=O)(=O)NCN2
inactive: dose: 65.0 mg/kg/injection, schedule: Q01DX009 (ip), vehicle: Klucel (hydroxypropylcellulose) (HPC) 102 % of control | dose: 75.0 mg/kg/injection, schedule: Q01DX001 (ip), vehicle: saline 106 % of control | dose: 135.0 mg/kg/injection, schedule: Q01DX009 (ip), vehicle: Klucel (hydroxypropylcellulose) (HPC) 88 % of control | dose: 150.0 mg/kg/injection, schedule: Q01DX001 (ip), vehicle: saline 96 % of control | [19] 100 % of control | dose: 300.0 mg/kg/injection, schedule: Q01DX009 (ip), vehicle: Klucel (hydroxypropylcellulose) (HPC) 97 % of control | dose: 600.0 mg/kg/injection, schedule: Q01DX009 (ip), vehicle: Klucel (hydroxypropylcellulose) (HPC) 88 % of control

O=C(Cc1cccc([N+](=O)[O-])c1)Nc1ccccc1
inactive: [20] 91 % of control | [21] 96 % of control | [19] 98 % of control | [22] 96 % of control | dose: 400.0 mg/kg/injection, schedule: Q01DX009 (ip), vehicle: Klucel (hydroxypropylcellulose) (HPC) 93 % of control | [23] 102 % of control

CC(C)CNS(=O)(=O)c1ccc(Cl)c([N+](=O)[O-])c1
inactive: [21] 99 % of control | [22] 97 % of control | [23] 106 % of control

CCCCNC(=O)Nc1cc(Cl)ccc1C
inactive: dose: 3.12 mg/kg/injection, schedule: Q01DX009 (ip), vehicle: Klucel (hydroxypropylcellulose) (HPC) 97 % of control | dose: 6.25 mg/kg/injection, schedule: Q01DX009 (ip), vehicle: Klucel (hydroxypropylcellulose) (HPC) 92 % of control | [1] 101 % of control and 90 % of control | [3] 89 % of control | [20] 94 % of control and 86 % of control | [21] 95 % of control | [22] 90 % of control | [23] 90 % of control

O=P1(O)[O][Sn]([c]2ccccc2)([c]2ccccc2)[O]1
inactive: dose: 6.25 mg/kg/injection, schedule: Q01DX009 (ip), vehicle: saline with Tween-80 97 % of control | dose: 12.5 mg/kg/injection, schedule: Q01DX009 (ip), vehicle: saline with Tween-80 97 % of control

CCCCNC(=O)Nc1cc(C)ccc1Cl
inactive: [11] 115 % of control | [12] 97 % of control | dose: 400.0 mg/kg/injection, schedule: Q04DX002 (ip), vehicle: Klucel (hydroxypropylcellulose) (HPC) 105 % of control

Nc1nc(Cl)c2nnn(C3CC(O)C(CO)C3)c2n1 (centres undefined)
inactive: [3] 118 % of control | [5] 105 % of control | [20] 100 % of control

CCCCCCCCC[n+]1ccc(C(N)=O)cc1
inactive: [7] 98 % of control

COC(=O)c1ccc(C)cn1
inactive: [8] 100 % of control

C=C(NC(=O)C(NC(=O)C(CCCCN)NC(=O)C1CSC(C)C2NC(=O)C(CC(C)C)NC(=O)C(NC(=O)C(CCC(N)=O)NC(=O)C(CC(C)C)NC(=O)C(Cc3ccccc3)NC(=O)C3CSC(C)C(NC(=O)C(NC(=O)C4CSC(C)C(NC(=O)C5CSCC(NC(=O)C(CCCCN)NC(=O)C(N)Cc6c[nH]c7ccccc67)C(=O)NC(CCC(=O)O)C(=O)NC(=C)C(=O)NC(CC(C)C)C(=O)N5)C(=O)N5CCCC5C(=O)NCC(=O)N4)C(C)C)C(=O)NCC(=O)NC(C)C(=O)NC(CC(C)C)C(=O)NC(CCC(N)=O)C(=O)N/C(=C/C)C(=O)N3)C(C)SCC(NC2=O)C(=O)NC(CC(N)=O)C(=O)N1)C(C)CC)C(=O)NC(CCCCN)C(=O)O (centres undefined)
inactive: [16] 108 % of control | [17] 94 % of control | [18] 92 % of control

C1=CC2OC3CCCCC3C2c2ccccc21 (centres undefined)
inactive: [13] 95 % of control | [14] 95 % of control | [15] 98 % of control

O=C(Nc1nccs1)Nc1cccc(Cl)c1Cl
inactive: [3] 106 % of control | [5] 101 % of control

Cc1ccc(C)c(NC(=O)NCc2ccc(Cl)cc2)c1
inactive: dose: 100.0 mg/kg/injection, schedule: Q01DX009 (ip), vehicle: saline with Tween-80 87 % of control | [7] 93 % of control | dose: 200.0 mg/kg/injection, schedule: Q01DX009 (ip), vehicle: saline with Tween-80 89 % of control | dose: 400.0 mg/kg/injection, schedule: Q01DX009 (ip), vehicle: saline with Tween-80 93 % of control | dose: 400.0 mg/kg/injection, schedule: Q04DX003 (ip), vehicle: saline with Tween-80 100 % of control

Cc1cccc(CO)n1
inactive: [24] 106 % of control | dose: 100.0 mg/kg/injection, schedule: Q04DX003 (ip), vehicle: saline 110 % of control | [25] 108 % of control | dose: 200.0 mg/kg/injection, schedule: Q04DX003 (ip), vehicle: saline 110 % of control | dose: 400.0 mg/kg/injection, schedule: Q01DX009 (ip), vehicle: saline 103 % of control | dose: 400.0 mg/kg/injection, schedule: Q04DX003 (ip), vehicle: saline 103 % of control

CC1N=C(c2ccccc2)C2(c3ccccc3)C(C)N12 (centres undefined)
inactive: dose: 100.0 mg/kg/injection, schedule: Q01DX001 (ip), vehicle: Klucel (hydroxypropylcellulose) (HPC) 97 % of control | dose: 200.0 mg/kg/injection, schedule: Q01DX001 (ip), vehicle: Klucel (hydroxypropylcellulose) (HPC) 94 % of control

Cc1ccc(Br)c(Br)c1
inactive: dose: 50.0 mg/kg/injection, schedule: Q01DX009 (ip), vehicle: saline 97 % of control | [24] 87 % of control | [25] 111 % of control

CCC(CO)ON=C(C)C (centres undefined)
inactive: [8] 104 % of control | [9] 104 % of control | [10] 102 % of control
